We go through seven molecules from ChEMBL document CHEMBL5465560, “Selectivity Literature for EUbOPEN Chemogenomic Library” (2024).

A word on the IC50: it is the concentration that gives 50% inhibition.

The target in test [1] is T1, Mitogen-activated protein kinase kinase kinase 13 (Homo sapiens) (UniProt O43283).
T1 sequence (whole entry): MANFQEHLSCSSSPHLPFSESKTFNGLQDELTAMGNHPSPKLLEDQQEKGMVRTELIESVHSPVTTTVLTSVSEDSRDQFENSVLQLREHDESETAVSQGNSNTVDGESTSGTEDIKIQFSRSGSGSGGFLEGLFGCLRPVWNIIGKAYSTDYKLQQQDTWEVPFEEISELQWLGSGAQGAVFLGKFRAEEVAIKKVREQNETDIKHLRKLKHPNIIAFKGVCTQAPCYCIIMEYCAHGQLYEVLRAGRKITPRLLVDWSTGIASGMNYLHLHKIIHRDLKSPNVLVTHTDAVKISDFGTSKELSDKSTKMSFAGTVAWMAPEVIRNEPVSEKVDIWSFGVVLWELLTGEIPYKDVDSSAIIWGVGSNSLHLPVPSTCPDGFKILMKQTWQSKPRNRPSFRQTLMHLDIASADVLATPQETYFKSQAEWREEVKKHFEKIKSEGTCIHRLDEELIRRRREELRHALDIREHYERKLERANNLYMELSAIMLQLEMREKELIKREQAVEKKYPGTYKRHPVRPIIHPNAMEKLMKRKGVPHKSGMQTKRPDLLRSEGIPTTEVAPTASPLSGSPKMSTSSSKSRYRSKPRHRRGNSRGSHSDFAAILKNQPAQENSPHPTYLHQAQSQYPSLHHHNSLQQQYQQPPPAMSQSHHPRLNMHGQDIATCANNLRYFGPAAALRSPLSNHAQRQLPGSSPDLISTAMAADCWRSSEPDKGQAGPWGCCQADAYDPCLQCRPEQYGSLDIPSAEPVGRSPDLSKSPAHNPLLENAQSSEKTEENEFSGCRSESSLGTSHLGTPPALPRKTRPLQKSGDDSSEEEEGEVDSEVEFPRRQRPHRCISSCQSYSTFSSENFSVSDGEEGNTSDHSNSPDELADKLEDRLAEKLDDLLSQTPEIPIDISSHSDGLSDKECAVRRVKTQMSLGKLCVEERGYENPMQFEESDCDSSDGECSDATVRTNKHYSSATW
Kind of test: Selectivity interaction (KinomeScan (DiscoverX)) EUB0000695a MAP3K13. Particulars: at 100 nM.

Test [2] addresses Serine/threonine-protein kinase pim-2 (Homo sapiens, UniProt Q9P1W9). Put plainly: Selectivity interaction (KinomeScan (DiscoverX)) EUB0000695a PIM2. As to conditions: at 100 nM.
Test [3] has as its target T2, Histone-lysine N-methyltransferase NSD3 (Homo sapiens) (UniProt Q9BZ95).
T2 sequence (whole entry): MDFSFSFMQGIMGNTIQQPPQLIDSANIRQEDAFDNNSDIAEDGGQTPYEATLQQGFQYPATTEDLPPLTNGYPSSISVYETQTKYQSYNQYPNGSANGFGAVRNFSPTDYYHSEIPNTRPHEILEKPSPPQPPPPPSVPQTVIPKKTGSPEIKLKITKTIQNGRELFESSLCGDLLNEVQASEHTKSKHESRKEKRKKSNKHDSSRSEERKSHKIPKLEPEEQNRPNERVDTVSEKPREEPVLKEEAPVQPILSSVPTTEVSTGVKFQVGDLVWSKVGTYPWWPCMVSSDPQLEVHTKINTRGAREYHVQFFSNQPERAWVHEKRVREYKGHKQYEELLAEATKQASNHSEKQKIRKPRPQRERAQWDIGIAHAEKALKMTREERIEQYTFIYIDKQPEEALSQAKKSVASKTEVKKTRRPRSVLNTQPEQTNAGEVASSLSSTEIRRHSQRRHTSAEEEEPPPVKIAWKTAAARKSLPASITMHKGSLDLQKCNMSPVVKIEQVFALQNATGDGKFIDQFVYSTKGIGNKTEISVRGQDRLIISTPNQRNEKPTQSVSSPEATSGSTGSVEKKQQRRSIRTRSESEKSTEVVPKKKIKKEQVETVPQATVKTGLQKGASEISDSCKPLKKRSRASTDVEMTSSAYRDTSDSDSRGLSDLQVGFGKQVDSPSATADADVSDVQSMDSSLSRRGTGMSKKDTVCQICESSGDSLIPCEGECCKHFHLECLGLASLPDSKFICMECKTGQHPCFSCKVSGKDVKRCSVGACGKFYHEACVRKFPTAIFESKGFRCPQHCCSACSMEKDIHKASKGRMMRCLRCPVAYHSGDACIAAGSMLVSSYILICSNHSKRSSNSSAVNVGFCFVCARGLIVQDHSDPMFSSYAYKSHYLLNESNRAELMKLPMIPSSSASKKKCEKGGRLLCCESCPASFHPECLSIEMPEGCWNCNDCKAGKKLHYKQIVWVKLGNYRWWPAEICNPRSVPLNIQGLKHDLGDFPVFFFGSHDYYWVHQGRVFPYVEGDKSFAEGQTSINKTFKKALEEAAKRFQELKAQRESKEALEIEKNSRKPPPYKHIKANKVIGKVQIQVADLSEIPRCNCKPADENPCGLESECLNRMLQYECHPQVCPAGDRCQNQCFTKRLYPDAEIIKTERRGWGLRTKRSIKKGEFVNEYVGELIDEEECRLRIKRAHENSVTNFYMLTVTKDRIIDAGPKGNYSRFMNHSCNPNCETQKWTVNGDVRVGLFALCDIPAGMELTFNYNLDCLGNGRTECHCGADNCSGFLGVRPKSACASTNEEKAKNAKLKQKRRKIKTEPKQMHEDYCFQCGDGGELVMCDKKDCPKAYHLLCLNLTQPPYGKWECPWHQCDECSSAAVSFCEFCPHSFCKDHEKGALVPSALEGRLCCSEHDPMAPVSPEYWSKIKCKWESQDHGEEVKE
Kind of test: Selectivity interaction (Transferase panel (protein, RNA, and DNA methyltransferases. and EP300 (acetyltransferase))) EUB0000270b NSD3.

The target of test [4] is RAF proto-oncogene serine/threonine-protein kinase (Homo sapiens) (UniProt P04049). Kind of test: Selectivity interaction (KinomeScan (DiscoverX)) EUB0000045b RAF1.
The target in test [5] is MAP/microtubule affinity-regulating kinase 3 (Homo sapiens) (UniProt P27448). Kind of test: Selectivity interaction (Kinase panel (Z-LYTE Assay)) EUB0001632a MARK3. Particulars: at 10 µM.
Test [6] has as its target Dual specificity mitogen-activated protein kinase kinase 1 (Homo sapiens, UniProt Q02750). Put plainly: Selectivity interaction (Rxn Biology Kinase assay) EUB0001632a MAP2K1. As to conditions: at 10 µM.
In test [7] the target is Ribosomal protein S6 kinase alpha-3 (Homo sapiens, UniProt P51812). Put plainly: Selectivity interaction (ActivX KiNativ screen (kinase selectivity in THP-1 cell lysates)) EUB0000639a RPS6KA3. The class given is subcellular. As to conditions: lysate, at 1 µM.
Test [8] has as its target STE20-like serine/threonine-protein kinase (Homo sapiens, UniProt Q9H2G2). Put plainly: Selectivity interaction (KinomeScan (DiscoverX)) EUB0000229b SLK. Particulars: at 10 µM.
The target of test [9] is Muscarinic acetylcholine receptor M1 (Homo sapiens, UniProt P11229). Put plainly: Selectivity interaction (Muscarinic M1 receptor assay, human recombinant ) EUB0000877a CHRM1.
Chain of Muscarinic acetylcholine receptor M1 (P11229 whole entry): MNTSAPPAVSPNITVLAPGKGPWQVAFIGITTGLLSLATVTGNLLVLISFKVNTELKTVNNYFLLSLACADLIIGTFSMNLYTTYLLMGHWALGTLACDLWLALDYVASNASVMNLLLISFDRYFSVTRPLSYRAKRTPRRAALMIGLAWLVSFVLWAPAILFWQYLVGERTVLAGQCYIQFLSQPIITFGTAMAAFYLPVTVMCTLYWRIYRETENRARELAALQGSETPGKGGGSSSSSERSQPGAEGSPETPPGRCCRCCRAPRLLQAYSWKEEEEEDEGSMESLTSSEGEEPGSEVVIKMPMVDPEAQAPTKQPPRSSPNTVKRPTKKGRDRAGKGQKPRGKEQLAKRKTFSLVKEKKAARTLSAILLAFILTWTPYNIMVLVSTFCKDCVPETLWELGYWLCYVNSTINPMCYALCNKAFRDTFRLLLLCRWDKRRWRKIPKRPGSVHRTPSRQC

Chain of RAF proto-oncogene serine/threonine-protein kinase (Homo sapiens) (P04049 whole entry): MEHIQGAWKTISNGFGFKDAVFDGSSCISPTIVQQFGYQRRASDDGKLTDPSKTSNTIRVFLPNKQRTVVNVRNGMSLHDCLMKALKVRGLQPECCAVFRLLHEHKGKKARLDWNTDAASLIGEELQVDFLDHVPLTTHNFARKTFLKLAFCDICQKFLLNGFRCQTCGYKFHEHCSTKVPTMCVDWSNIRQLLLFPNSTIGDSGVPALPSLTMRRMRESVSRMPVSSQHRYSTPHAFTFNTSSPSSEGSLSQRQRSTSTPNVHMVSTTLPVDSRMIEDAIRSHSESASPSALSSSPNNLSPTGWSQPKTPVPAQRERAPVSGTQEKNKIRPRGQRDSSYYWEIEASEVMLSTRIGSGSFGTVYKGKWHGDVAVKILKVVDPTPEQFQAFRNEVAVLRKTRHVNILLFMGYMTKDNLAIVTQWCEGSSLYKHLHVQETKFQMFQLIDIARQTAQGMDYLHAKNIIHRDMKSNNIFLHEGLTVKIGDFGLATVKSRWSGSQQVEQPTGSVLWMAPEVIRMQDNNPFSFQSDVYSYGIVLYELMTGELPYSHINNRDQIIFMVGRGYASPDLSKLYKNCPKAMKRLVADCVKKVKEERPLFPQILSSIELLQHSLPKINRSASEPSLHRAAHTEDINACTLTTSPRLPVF
Chain of STE20-like serine/threonine-protein kinase (Q9H2G2 whole entry, looked up): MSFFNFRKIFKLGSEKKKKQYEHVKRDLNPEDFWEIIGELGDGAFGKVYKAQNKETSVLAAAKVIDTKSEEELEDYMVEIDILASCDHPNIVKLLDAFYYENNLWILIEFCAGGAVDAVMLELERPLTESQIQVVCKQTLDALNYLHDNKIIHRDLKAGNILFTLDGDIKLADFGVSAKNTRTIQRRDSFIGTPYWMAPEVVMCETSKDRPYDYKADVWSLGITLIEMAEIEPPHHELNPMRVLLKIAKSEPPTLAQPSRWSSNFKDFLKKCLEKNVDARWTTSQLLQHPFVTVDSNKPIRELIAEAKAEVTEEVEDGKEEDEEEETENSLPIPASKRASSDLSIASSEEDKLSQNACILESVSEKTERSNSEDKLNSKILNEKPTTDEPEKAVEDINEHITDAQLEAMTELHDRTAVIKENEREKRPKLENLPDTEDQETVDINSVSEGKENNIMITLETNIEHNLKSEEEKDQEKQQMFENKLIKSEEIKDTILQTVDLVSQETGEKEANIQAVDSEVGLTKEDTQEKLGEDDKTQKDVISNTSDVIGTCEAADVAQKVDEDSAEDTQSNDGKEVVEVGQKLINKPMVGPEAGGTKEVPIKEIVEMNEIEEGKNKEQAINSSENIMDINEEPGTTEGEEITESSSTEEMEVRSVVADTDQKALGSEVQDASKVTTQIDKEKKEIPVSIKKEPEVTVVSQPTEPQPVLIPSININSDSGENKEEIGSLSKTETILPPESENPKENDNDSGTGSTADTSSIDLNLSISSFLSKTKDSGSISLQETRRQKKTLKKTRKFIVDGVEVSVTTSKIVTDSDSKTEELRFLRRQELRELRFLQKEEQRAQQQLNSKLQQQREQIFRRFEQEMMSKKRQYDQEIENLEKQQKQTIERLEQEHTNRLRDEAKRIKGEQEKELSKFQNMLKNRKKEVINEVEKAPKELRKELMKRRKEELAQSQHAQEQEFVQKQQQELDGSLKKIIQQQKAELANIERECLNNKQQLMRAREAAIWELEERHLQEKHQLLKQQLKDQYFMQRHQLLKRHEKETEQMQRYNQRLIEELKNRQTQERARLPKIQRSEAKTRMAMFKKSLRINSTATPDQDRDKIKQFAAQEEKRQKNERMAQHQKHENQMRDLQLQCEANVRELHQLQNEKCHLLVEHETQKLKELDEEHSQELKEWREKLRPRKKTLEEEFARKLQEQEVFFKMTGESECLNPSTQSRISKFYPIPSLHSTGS
Chain of Ribosomal protein S6 kinase alpha-3 (P51812 whole entry): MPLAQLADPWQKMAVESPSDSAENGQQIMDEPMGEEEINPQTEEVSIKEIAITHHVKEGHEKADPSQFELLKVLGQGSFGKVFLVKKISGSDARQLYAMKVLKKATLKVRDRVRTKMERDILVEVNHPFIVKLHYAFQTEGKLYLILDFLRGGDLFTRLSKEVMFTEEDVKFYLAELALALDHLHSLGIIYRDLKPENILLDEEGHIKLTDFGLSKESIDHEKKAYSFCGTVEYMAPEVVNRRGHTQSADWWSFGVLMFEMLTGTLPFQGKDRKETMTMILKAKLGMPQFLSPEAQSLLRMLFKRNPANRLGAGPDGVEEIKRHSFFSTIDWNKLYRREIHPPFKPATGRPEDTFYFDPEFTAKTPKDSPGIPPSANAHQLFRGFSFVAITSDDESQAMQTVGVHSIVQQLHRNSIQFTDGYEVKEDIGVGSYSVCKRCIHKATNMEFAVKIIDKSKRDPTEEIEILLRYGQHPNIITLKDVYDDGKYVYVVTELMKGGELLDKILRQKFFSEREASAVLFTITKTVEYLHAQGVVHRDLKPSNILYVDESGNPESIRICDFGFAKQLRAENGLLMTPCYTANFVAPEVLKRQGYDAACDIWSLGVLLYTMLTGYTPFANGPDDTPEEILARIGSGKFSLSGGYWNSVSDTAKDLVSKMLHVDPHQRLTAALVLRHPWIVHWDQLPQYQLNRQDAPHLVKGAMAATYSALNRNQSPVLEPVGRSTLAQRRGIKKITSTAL
Chain of Dual specificity mitogen-activated protein kinase kinase 1 (Q02750 whole entry): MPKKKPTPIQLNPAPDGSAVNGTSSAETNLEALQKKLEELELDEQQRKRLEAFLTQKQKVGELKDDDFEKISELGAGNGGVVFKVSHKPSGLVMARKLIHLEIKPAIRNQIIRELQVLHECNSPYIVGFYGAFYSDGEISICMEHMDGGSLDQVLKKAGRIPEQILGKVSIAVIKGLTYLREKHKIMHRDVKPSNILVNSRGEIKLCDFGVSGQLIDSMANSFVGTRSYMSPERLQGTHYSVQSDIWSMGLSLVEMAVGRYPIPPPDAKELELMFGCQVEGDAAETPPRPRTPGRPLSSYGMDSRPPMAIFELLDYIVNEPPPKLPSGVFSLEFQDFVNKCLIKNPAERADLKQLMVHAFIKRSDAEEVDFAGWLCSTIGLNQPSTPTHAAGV
Chain of Serine/threonine-protein kinase pim-2 (Q9P1W9 whole entry, looked up): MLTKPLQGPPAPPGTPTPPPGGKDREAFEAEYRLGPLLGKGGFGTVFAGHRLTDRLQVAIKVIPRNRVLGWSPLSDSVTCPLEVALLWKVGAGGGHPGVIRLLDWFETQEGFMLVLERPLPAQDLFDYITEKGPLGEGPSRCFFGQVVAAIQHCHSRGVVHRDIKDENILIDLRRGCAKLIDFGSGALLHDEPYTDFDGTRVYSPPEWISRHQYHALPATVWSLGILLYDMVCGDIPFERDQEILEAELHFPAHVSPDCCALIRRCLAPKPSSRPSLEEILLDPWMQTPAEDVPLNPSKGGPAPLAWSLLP
Chain of MAP/microtubule affinity-regulating kinase 3 (Homo sapiens) (P27448 whole entry, looked up): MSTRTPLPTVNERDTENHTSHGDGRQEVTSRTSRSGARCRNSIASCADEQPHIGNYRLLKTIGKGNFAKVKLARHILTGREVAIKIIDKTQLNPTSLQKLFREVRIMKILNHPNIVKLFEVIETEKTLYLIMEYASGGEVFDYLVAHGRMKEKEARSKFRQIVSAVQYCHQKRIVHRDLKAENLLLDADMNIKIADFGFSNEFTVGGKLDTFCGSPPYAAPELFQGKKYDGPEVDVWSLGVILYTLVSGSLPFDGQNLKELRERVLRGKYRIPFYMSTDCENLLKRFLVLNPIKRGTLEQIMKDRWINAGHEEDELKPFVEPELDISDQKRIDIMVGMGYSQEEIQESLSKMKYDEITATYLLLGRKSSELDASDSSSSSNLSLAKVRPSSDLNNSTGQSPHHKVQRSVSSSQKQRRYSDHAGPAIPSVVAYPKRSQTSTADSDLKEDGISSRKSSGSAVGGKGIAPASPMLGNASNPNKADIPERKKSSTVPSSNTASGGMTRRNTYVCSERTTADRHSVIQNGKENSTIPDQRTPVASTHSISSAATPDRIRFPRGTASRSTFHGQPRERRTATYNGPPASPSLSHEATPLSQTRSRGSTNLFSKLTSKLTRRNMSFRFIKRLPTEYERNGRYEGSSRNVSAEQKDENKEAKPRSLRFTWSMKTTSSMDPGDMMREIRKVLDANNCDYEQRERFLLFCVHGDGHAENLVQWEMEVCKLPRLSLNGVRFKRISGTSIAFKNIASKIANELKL

Take `Cc1cc(F)c(C(=O)Nc2cccc(-c3nncn3C(C)C)n2)cc1-n1cnc(C2CC2)c1`: the % of control in test [1] was found to be 97%; in [2] it was 78%.
Regarding `Cc1cc(CN)cc(C)c1-c1ncn(C)c1-c1cncn1C`, the % activity in test [3] (at 1 µM) was over 90%; in test [3] (at 10 µM), over 80%.
As to `C=CC(=O)Nc1cc(-n2c(=O)ccc3cnc4ccc(-c5ccc(NS(C)(=O)=O)cc5)cc4c32)ccc1C`, the % of control in test [4] (at 1 µM) and in [4] (at 10 µM) was 100% throughout.
`Cn1cc(-n2cnc3c(NCc4nc5cc(Cl)c(Cl)cc5[nH]4)nc(N4CCOCC4)nc32)cn1` registered a % of control in test [5] of 18.1%. In addition, in test [6], the % of inhibition came out at 4.54%.
As for `CC[C@@H]1[C@H](F)C(=O)N[C@@H]1COc1nccc2cc(C(N)=O)c(OC)cc12` [ZIMLOVISERTIB], in [7], the % of inhibition is -10.7%.
The molecule `COc1cc(N(C)c2ccnc3ccc(C(F)(F)F)cc23)cc(OC)c1OC` showed a % binding in [8] of 31%.
With `CCC(=O)N1CC[C@H](Nc2ncnc3c2CN(c2cnc(OC)c(C(F)(F)F)c2)CC3)C1` [LENIOLISIB], in test [9], the IC50 is over 30 µM.
